According to ChEMBL document CHEMBL4028815, “Novel phosphonate analogs of sulforaphane: Synthesis, in vitro and in vivo anticancer activity” (Eur J Med Chem, 2017):
The source made the active and inactive calls. No cut-off for these calls is given here.

Assays:
[1] = test system: 4T1; test: Anti-tumor activity against mouse 4T1 cells implanted in BALB/c mdb mouse assessed as tumor growth inhibition at 25 umol/kg, ip administered 3 times weekly measured on day 29 post cell innoculum relative to control; settings: 4T1, ip, 696 h, read-out: TGI
[2] = Potency index, ratio of sulforaphane IC50 to compound IC50 for human LoVo/DX cell; format: functional
[3] = Potency index, ratio of benzyl isothiocyanate IC50 to compound IC50 for human LoVo/DX cell; format: functional
[4] = test system: LoVo; test: Potency index, ratio of sulforaphane IC50 to compound IC50 for human LoVo cells; format: functional
[5] = test system: LoVo; test: Potency index, ratio of benzyl isothiocyanate IC50 to compound IC50 for human LoVo cells; format: functional
[6] = test system: LoVo; test: Cytotoxicity against human LoVo cells after 72 hrs by sulforhodamine B assay; format: functional, cell-based
[7] = Cytotoxicity against human LoVo/DX cells after 72 hrs by sulforhodamine B assay; format: functional, cell-based
[8] = Cytotoxicity against human LoVo/DX cells assessed as cell death at >15 uM after 24 hrs; format: cell-based
[9] = test system: HL-60; test: Cytotoxicity against human HL60 cells after 72 hrs by sulforhodamine B assay; format: functional, cell-based; settings: HL-60, 72 h
[10] = test system: HL60/MX2; test: Cytotoxicity against human HL60/MX2 cells after 72 hrs by sulforhodamine B assay; format: functional, cell-based; settings: HL60/MX2, 72 h
[11] = Resistance index, ratio of IC50 for human HL60/MX2 cells to IC50 for human HL60 cells; format: functional
[12] = test system: BALB/3T3; test: Cytotoxicity against mouse BALB/3T3 cells after 72 hrs by sulforhodamine B assay; format: cell-based; settings: BALB/3T3, 72 h
[13] = test system: A549; test: Cytotoxicity against human A549 cells after 72 hrs by sulforhodamine B assay; format: functional, cell-based; settings: A549, 72 h
[14] = test system: 4T1; test: Cytotoxicity against mouse 4T1 cells after 72 hrs by sulforhodamine B assay; format: functional, cell-based; settings: 4T1, 72 h
[15] = test system: MES-SA; test: Cytotoxicity against human MESSA cells after 72 hrs by sulforhodamine B assay; format: functional, cell-based
[16] = test system: MES-SA/Dx5; test: Cytotoxicity against human MESSA/DX5 cells after 72 hrs by sulforhodamine B assay; format: functional, cell-based; settings: MES-SA/Dx5, 72 h
[17] = test system: LoVo; test: Cell cycle arrest in human LoVo cells at 15 uM after 24 hrs by propidium iodide staining based flow cytometric method; format: functional
[18] = test system: LoVo/DX; test: Cell cycle arrest in human LoVo/DX cells at 15 uM after 24 hrs by propidium iodide staining based flow cytometric method; format: functional
[19] = Induction of apoptosis in human LoVo/DX cells assessed as increase in caspase3/7 activity at 15 uM using Ac-DEVD-ACC as substrate pretreated for 24 hrs followed by substrate addition measured for 2 hrs by fluorescence assay relative to control; format: functional
[20] = test system: LoVo; test: Induction of apoptosis in human LoVo cells assessed as increase in caspase3/7 activity at 15 uM using Ac-DEVD-ACC as substrate pretreated for 24 hrs followed by substrate addition measured for 2 hrs by fluorescence assay relative to control; format: functional
[21] = test system: LoVo/DX; test: Induction of apoptosis in human LoVo/DX cells assessed as increase in caspase3/7 activity at >15 uM using Ac-DEVD-ACC as substrate pretreated for 24 hrs followed by substrate addition measured for 2 hrs by fluorescence assay; format: functional, cell-based
[22] = test system: LoVo; test: Induction of apoptosis in human LoVo cells assessed as increase in caspase3/7 activity at >15 uM using Ac-DEVD-ACC as substrate pretreated for 24 hrs followed by substrate addition measured for 2 hrs by fluorescence assay; format: functional, cell-based
[23] = test system: LoVo; test: Induction of apoptosis in human LoVo cells assessed as loss of mitochondrial membrane potential at 15 uM after 24 hrs by JC-1 staining based flow cytometric method relative to control; format: functional
[24] = test system: LoVo/DX; test: Induction of apoptosis in human LoVo/DX cells assessed as loss of mitochondrial membrane potential at 15 uM after 24 hrs by JC-1 staining based flow cytometric method relative to control; format: functional
[25] = test system: LoVo; test: Induction of apoptosis in human LoVo cells assessed as late apoptotic cells at 15 uM after 24 hrs by APC-Annexin-V/propidium iodide staining based flow cytometric method relative to control; format: functional
[26] = test system: LoVo/DX; test: Induction of apoptosis in human LoVo/DX cells assessed as late apoptotic cells at 15 uM after 24 hrs by APC-Annexin-V/propidium iodide staining based flow cytometric method relative to control; format: functional
[27] = test system: LoVo; test: Induction of apoptosis in human LoVo cells assessed as increase in early apoptotic cells at 15 uM after 24 hrs by APC-Annexin-V/propidium iodide staining based flow cytometric method relative to control; format: functional
[28] = test system: LoVo; test: Induction of apoptosis in human LoVo cells assessed as necrotic cells at 15 uM after 24 hrs by APC-Annexin-V/propidium iodide staining based flow cytometric method (reference value: 10%); format: functional
[29] = test system: 4T1; test: Anti-tumor activity against mouse 4T1 cells implanted in BALB/c mdb mouse assessed as tumor growth inhibition at 450 umol/kg, ip administered five times weekly measured on day 29 post cell innoculum relative to control; format: functional; settings: 4T1, ip, 696 h, read-out: TGI
[30] = test system: Mus musculus; test: Toxicity in BALB/c mdb mouse implanted with mouse 4T1 cells assessed as body weight loss at 450 umol/kg, ip administered five times weekly measured 3 times weekly during compound dosing; format: organism-based; settings: in vivo
[31] = test system: Mus musculus; test: Toxicity in BALB/c mdb mouse implanted with mouse 4T1 cells assessed as body weight loss at 450 umol/kg, ip administered five times weekly measured on day 11; format: organism-based; settings: in vivo
[32] = test system: Mus musculus; test: Toxicity in BALB/c mdb mouse implanted with mouse 4T1 cells assessed as body weight loss at 450 umol/kg, ip administered five times weekly starting from day 15 post cell innoculum; format: organism-based; settings: in vivo
[33] = test system: Mus musculus; test: Hepatotoxicity in BALB/c mdb mouse implanted with mouse 4T1 cells assessed as liver weight at 450 umol/kg, ip administered five times weekly measured at 29 day post cell innoculum (reference value: 1.2 +/- 0.13 g); format: toxicity, organism-based; settings: in vivo, 696 h
[34] = test system: Mus musculus; test: Nephrotoxicity in BALB/c mdb mouse implanted with mouse 4T1 cells assessed as kidney weight at 450 umol/kg, ip administered five times weekly measured at 29 day post cell innoculum (reference value: 0.136 +/- 0.006 g); format: toxicity, organism-based; settings: in vivo, 696 h
[35] = test system: Mus musculus; test: Toxicity in BALB/c mdb mouse implanted with mouse 4T1 cells assessed as spleen weight at 450 umol/kg, ip administered five times weekly measured at 29 day post cell innoculum (reference value: 0.603 +/- 0.133 g); format: organism-based; settings: in vivo, 696 h
[36] = test system: Mus musculus; test: Toxicity in BALB/c mdb mouse implanted with mouse 4T1 cells assessed as lung weight at 450 umol/kg, ip administered five times weekly measured at 29 day post cell innoculum (reference value: 0.2 +/- 0.018 g); format: organism-based; settings: in vivo, 696 h
[37] = test system: 4T1; test: Anti-tumor activity against mouse 4T1 cells implanted in BALB/c mdb mouse assessed as lung metastasis at 450 umol/kg, ip administered five times weekly measured at 29 days post cell innoculum (reference value: 56 +/- 25); format: functional
[38] = test system: Mus musculus; test: Toxicity in BALB/c mdb mouse implanted with mouse 4T1 cells assessed as WBC level at 450 umol/kg, ip administered five times weekly measured at 29 day post cell innoculum (reference value: 212.3 +/- 82.8 10^3/uL); format: organism-based; settings: in vivo, 696 h
[39] = test system: Mus musculus; test: Toxicity in BALB/c mdb mouse implanted with mouse 4T1 cells assessed as RBC level at 450 umol/kg, ip administered five times weekly measured at 29 day post cell innoculum (reference value: 8.6 +/- 0.9 10^6/uL); format: organism-based; settings: in vivo, 696 h
[40] = test system: Mus musculus; test: Toxicity in BALB/c mdb mouse implanted with mouse 4T1 cells assessed as hemoglobin level at 450 umol/kg, ip administered five times weekly measured at 29 day post cell innoculum (reference value: 15.1 +/- 1.5 g/dl); format: organism-based; settings: in vivo, 696 h
[41] = test system: Mus musculus; test: Toxicity in BALB/c mdb mouse implanted with mouse 4T1 cells assessed as hematocrit at 450 umol/kg, ip administered five times weekly measured at 29 day post cell innoculum (reference value: 39.9 +/- 3.7 %); format: organism-based; settings: in vivo, 696 h
[42] = test system: Mus musculus; test: Toxicity in BALB/c mdb mouse implanted with mouse 4T1 cells assessed as serum PLT level at 450 umol/kg, ip administered five times weekly measured at 29 day post cell innoculum (reference value: 972 +/- 157 10^3/uL); format: organism-based; settings: in vivo, 696 h
[43] = test system: Mus musculus; test: Toxicity in BALB/c mdb mouse implanted with mouse 4T1 cells assessed as serum ALT level at 450 umol/kg, ip administered five times weekly measured at 29 day post cell innoculum (reference value: 23.8 +/- 2.2 U/L); format: organism-based; settings: in vivo, 696 h
[44] = test system: Mus musculus; test: Toxicity in BALB/c mdb mouse implanted with mouse 4T1 cells assessed as serum AST level at 450 umol/kg, ip administered five times weekly measured at 29 day post cell innoculum (reference value: 136 +/- 10.3 U/L); format: organism-based; settings: in vivo, 696 h
[45] = test system: Mus musculus; test: Toxicity in BALB/c mdb mouse implanted with mouse 4T1 cells assessed as serum creatinine level at 450 umol/kg, ip administered five times weekly measured at 29 day post cell innoculum (reference value: 9.3 +/- 1.2 umol/L); format: organism-based; settings: in vivo, 696 h
[46] = test system: Mus musculus; test: Toxicity in BALB/c mdb mouse implanted with mouse 4T1 cells assessed as serum urea level at 450 umol/kg, ip administered five times weekly measured at 29 day post cell innoculum (reference value: 3.8 +/- […]); format: organism-based; settings: in vivo, 696 h
[47] = test system: LoVo; test: Cytotoxicity against human LoVo cells assessed as cell death at >15 uM after 24 hrs; format: cell-based

O=P1(N(CCCl)CCCl)NCCCO1 (stereo unspecified) [CYCLOPHOSPHAMIDE ANHYDROUS]
inhibition in vivo at 25 µmol/kg [1]: 33.3%

CC(C)COP(=O)(CCN=C=S)OCC(C)C
Ratio IC50 [2]: 10 | Ratio IC50 [3]: 5 | Ratio IC50 [4]: 10 | Ratio IC50 [5]: 5 | IC50 [6]: 1900 nM | IC50 [7]: 2.6 µM

CCOP(=O)(CCCCCCN=C=S)OCC
Activity [8]: Toxic | Ratio IC50 [4]: 10 | Ratio IC50 [5]: 5 | IC50 [9]: 500 nM | IC50 [10]: 4 µM | Ratio IC50 [11]: 7.8 | IC50 [6]: 2100 nM | IC50 [7]: 3.9 µM | IC50 [12]: 17.5 µM | IC50 [13]: 11.7 µM | IC50 [14]: 3.1 µM | IC50 [15]: 10.4 µM | IC50 [16]: 9.9 µM | Activity [17]: Active | Activity [18]: Active | fold change (FC) [19]: 3 | fold change (FC) [20]: 3 | Activity [21]: inactive | Activity [22]: inactive | Activity [23]: Active | Activity [24]: Active | Activity [25]: inactive | Activity [26]: inactive | Activity [27]: inactive | Activity [28]: Active | inhibition in vivo at 450 µmol/kg [29]: 7.1% | Activity [30]: <= 10% | Activity [31]: > 5% | Activity [32]: Non-Toxic | Activity [33]: 1.24 g | Activity [34]: 0.14 g | Activity [35]: 0.493 g | Activity [36]: 0.219 g | Activity [37]: 62 | Activity [38]: 201.2 ×10³ /uL | Activity [39]: 10.1 ×10⁶ /uL | Activity [40]: 17.3 g/dL | Activity [41]: 47.7% | Activity [42]: 751 ×10³ /uL | Activity [43]: 28.2 U/L | Activity [44]: 142.5 U/L | Activity [45]: 9.3 µmol/L | Activity [46]: 4.6 mmol/L | Activity [47]: Toxic
